Measured values as given in paper PMC6009937, “Comparing hydrazine-derived reactive groups as inhibitors of quinone-dependent amine oxidases” (Journal of Enzyme Inhibition and Medicinal Chemistry, 2017).
Where “and” joins values, the source holds several entries; their conditions need not be identical. Identical values can stand only once. Like-named read-outs stand apart in the source and are kept apart here.

Legend:
[1] = biological target: T1, lentil seedling diamine oxidase (LSDAO) (Lens culinaris, UniProt P49252); experiment: LSDAO activity assay (Amplex UltraRed/HRP fluorescence) after preincubation of enzyme with inhibitor; format: biochemical
T1 construct: Eight-day-old lentil seedlings (Lens esculenta) were blended and extracted; from tissue; host or cells: eight-day-old lentil seedlings (Lens esculenta)
T1 sequence (P49252 19-667): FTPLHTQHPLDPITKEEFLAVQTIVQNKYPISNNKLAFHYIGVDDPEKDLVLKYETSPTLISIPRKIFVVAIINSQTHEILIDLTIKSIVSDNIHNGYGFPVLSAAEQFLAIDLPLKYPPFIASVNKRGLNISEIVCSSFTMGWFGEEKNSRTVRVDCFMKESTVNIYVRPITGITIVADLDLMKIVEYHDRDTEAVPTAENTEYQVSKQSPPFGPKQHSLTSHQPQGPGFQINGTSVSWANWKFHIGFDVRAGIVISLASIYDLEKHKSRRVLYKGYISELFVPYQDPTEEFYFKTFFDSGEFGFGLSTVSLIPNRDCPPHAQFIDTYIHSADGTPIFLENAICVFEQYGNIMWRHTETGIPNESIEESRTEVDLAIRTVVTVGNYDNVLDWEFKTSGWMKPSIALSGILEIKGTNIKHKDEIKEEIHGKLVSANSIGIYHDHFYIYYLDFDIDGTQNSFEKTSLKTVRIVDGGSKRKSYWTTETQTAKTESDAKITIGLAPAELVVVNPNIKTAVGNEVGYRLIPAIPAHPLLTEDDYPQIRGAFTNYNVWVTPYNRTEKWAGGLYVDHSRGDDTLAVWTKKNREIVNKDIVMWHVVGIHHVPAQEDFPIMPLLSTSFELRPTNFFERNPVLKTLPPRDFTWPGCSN
Method: The LSDAO extraction process was carried out at 4 °C according to the method of Floris et al.[30] with slight modifications. Eight-day-old lentil seedlings (Lens esculenta) were blended and extracted with phosphate buffer (5 mM, pH 6.0, buffer A). Ammonium sulfate (230 g/L, 40% saturation) was used to precipitate contaminants, and then additional ammonium sulfate (125 g/L, 60% saturation) was used to precipitate the LSDAO. The crude precipitate was redissolved, dialyzed against buffer A, applied to a DEAE column, and eluted with buffer A. Active fractions were adjusted to pH 6.5, applied to a CM resin column, and eluted with 5 mM phosphate buffer, pH 6.5. Active fractions were concentrated and the buffer was changed to 10 mM phosphate, pH 7.0 before the protein was applied to a Sephacryl S-300 column and eluted with the same buffer. The concentration of the LSDAO dimer was determined from its absorption at 278 nm in 0.1 M phosphate buffer[31] using a molar extinction coefficient of 2.45 × 10^5 M^−1 cm^−1.
(§1) The activity assay is adopted from the method described by Palamakumbura et al.[35]. Enzyme and inhibitor were incubated at 37 °C for the desired inhibition time, diluted into the assay mixture, and analyzed by fluorescence (Agilent Technologies Cary Eclipse Fluorescence Spectrometer, Cary Eclipse Software, 37 °C, λex = 568 and λem = 581 nm). The assay was carried out in boric acid buffer (50 mM, pH 8.2) with 1.2 M urea for LOX or in phosphate buffer (0.1 M, pH = 7.0) for LSDAO. The final reagent concentrations in the assay mixture were 10 mM cadaverine, 10 μM Amplex UltraRed (Life Technologies, Carlsbad, CA), and 1 U/mL horse radish peroxidase (Amresco, Solon, OH).
(§2) The enzyme activity, which is proportional to the rate of increase in fluorescence, was measured for each experiment. Residual activity was calculated by dividing each rate by a maximum rate determined in the absence of inhibitor such that [residual activity] = ([rate with inhibitor] – [baseline rate])/([maximum rate] – [baseline rate]). […] The residual activities from replicate experiments were averaged. For each inhibitor concentration, log([average residual activity]) was plotted against inhibition time. Linear lines of best fit forced through the origin were calculated for each data set using Graphpad Prism 5.0b (La Jolla, CA). For each inhibitor, the slopes of these lines (min^−1) were plotted as –1/slope against 1/[inhibitor concentration] to produce a Kitz–Wilson plot.
(§3) To quantify the selectivity of each inhibitor, we defined a numerical “selectivity factor” as the inhibitor's IC50 value for LOX divided by its IC50 value for LSDAO (Figure 3(C)).
From the slopes and y-intercepts of these lines, the kinetic parameters KI (the reversible binding constant) and k2 (the rate constant for irreversible reaction) (Figure 5(A)) can be calculated.

Lysyl oxidase (LOX) = biological target: T2, Lysyl oxidase (LOX) (Bos taurus, UniProt P33072); experiment: LOX activity assay (Amplex UltraRed/HRP fluorescence) after preincubation of enzyme with inhibitor; format: biochemical, bovine; conditions: for IC50 / Selectivity factor (LOX IC50 value divided by LSDAO IC50 value): 10-min preincubation; for IC50: 37 °C, read-out: IC50 LOX; for Selectivity factor (LOX IC50 value divided by LSDAO IC50 value): LOX vs LSDAO; for remaining activity at 7 µM: 7 µM inhibitor; for remaining activity at 7 µM / remaining activity at 20 µM / remaining activity at 100 µM / remaining activity at 40 µM / remaining activity at 500 µM: read-out: Average Percent Activity Remaining, LOX; for remaining activity at 20 µM: 20 µM inhibitor; for remaining activity at 100 µM: 100 µM inhibitor; for LOX k2 (range) / KI (inactivation): Kitz-Wilson analysis; for LOX k2 (range): rate constant for irreversible reaction; for KI (inactivation): reversible binding constant, read-out: LOX KI^-1 (range); for remaining activity at 40 µM: 40 µM inhibitor; for remaining activity at 500 µM: 500 µM inhibitor
T2 construct: LOX was isolated from bovine aorta; from tissue; host or cells: bovine aorta
T2 sequence (P33072 170-418): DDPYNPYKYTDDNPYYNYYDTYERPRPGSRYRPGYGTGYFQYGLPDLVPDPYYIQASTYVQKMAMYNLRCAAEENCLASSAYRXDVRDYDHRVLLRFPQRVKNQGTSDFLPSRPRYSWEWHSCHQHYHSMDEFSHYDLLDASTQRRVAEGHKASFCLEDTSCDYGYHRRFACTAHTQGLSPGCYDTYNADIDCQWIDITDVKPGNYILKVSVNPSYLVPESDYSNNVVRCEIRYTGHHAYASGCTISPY
Method: LOX was isolated from bovine aorta at 4 °C using slight modifications of previously published procedures. All steps were carried out at in 16 mM phosphate, pH 7.8 (buffer B). After blending the aorta in buffer B containing 400 mM NaCl and 1 mM EDTA to remove soluble contaminants, the enzyme was extracted with buffer B containing 4 M urea and 1 mM EDTA. The crude enzyme extract was filtered, diluted with an equal volume of buffer B to obtain a urea concentration of 2 M, and loaded onto a DEAE column. After washing with buffer B containing 400 mM NaCl, the enzyme was eluted with buffer B containing 400 mM NaCl and 6 M urea. The urea concentration was reduced to 4 M by adding buffer B, and the solution was added to a slurry of ceramic hydroxyapatite in buffer B containing 4 M urea. After stirring, the supernatant was removed by filtration and dialyzed overnight against buffer B. The solution was added to a slurry of ceramic hydroxyapatite in buffer B, washed with small portions of 1 M phosphate and then buffer B, and then eluted with buffer B containing 6 M urea and 500 mM NaCl. After concentration to about 20 mL, the protein was applied to a Sephacryl S-200 gel filtration column preequilibrated with buffer B containing 50 mM NaCl, 1 mM EDTA, and 6 M urea and eluted with the same buffer. Active fractions were concentrated to 1 mL. Total protein concentration for 6 M urea solutions[33] was determined by its absorption at 280 nm using a molar extinction coefficient of 8.39 × 10^4 M^−1 cm ^−1.
as §1, §2, §3

LOX [2] = tested on: LOX; set-up: method as in PMID 2888772; conditions: chick embryos; cited from earlier work
rat lysyl oxidase = tested on: rat lysyl oxidase; set-up: method as in PMID 19524603; conditions: cited from earlier work
LOX [3] = tested on: LOX; set-up: method as in PMID 2571459; conditions: inhibition time not specified; read-out: IC50 LOX in vitro; cited from earlier work
[4] = 4 min, read-out: Average Percent Activity Remaining, LSDAO
[5] = 10 min, read-out: Average Percent Activity Remaining, LSDAO
[6] = Kitz-Wilson analysis, rate constant for irreversible reaction

## CCCCCCCNN [compound 4]
[1]
  IC50: 0.03 µM
[1]; [4]
  remaining activity at 0.03 µM: 81%
  remaining activity at 0.08 µM: 60%
  remaining activity at 0.1 µM: 43%
  remaining activity at 0.2 µM: 22%
  remaining activity at 0.5 µM: 1%
  remaining activity at 1 µM: 1%
[1]; [5]
  remaining activity at 0.03 µM: 45%
  remaining activity at 0.08 µM: 15%
  remaining activity at 0.1 µM: 7%
  remaining activity at 0.2 µM: 2%
[1]; [6]
  LSDAO k2 (range): 1.0 (0.75–1.6) min^-1 and 1.0 min^-1
[1]; read-out: LSDAO KI^-1 (range); Kitz-Wilson analysis, reversible binding constant
  KI (inactivation): 0.9 µM
Lysyl oxidase (LOX)
  IC50: 40 µM
  Selectivity factor (LOX IC50 value divided by LSDAO IC50 value): 1300
  LOX k2 (range): 0.079 (0.073–0.087) min^-1 and 0.07–0.09 min^-1 and 0.079 min^-1
  KI (inactivation): 57 µM
Lysyl oxidase (LOX); 4 min
  remaining activity at 7 µM: 89%
  remaining activity at 20 µM: 82%
  remaining activity at 100 µM: 59%
Lysyl oxidase (LOX); 10 min
  remaining activity at 7 µM: 83%
  remaining activity at 20 µM: 63%
  remaining activity at 100 µM: 30%

## CCCCNC(=O)NN [compound 5]
[1]; 10-min preincubation, 37 °C; read-out: IC50 LSDAO
  IC50: 4 µM
[1]; [4]
  remaining activity at 1 µM: 89%
  remaining activity at 2 µM: 78%
  remaining activity at 4 µM: 69%
  remaining activity at 20 µM: 41%
  remaining activity at 100 µM: 1%
[1]; [5]
  remaining activity at 1 µM: 84%
  remaining activity at 2 µM: 71%
  remaining activity at 4 µM: 50%
  remaining activity at 20 µM: 7%
[1]; [6]
  LSDAO k2 (range): 0.91 (0.50–5.0) min^-1 and 0.91 min^-1
[1]; Kitz-Wilson analysis, reversible binding constant; read-out: LSDAO KI^-1 (range)
  KI (inactivation): 112 µM
Lysyl oxidase (LOX)
  IC50: 100 µM
  Selectivity factor (LOX IC50 value divided by LSDAO IC50 value): 25
  LOX k2 (range): > 0.50 min⁻¹
  KI (inactivation): > 1000 µM
Lysyl oxidase (LOX); 4 min
  remaining activity at 40 µM: 93%
  remaining activity at 100 µM: 76%
  remaining activity at 500 µM: 35%
Lysyl oxidase (LOX); 10 min
  remaining activity at 40 µM: 78%
  remaining activity at 100 µM: 52%
  remaining activity at 500 µM: 6%

## NNC(=O)c1ccncc1 [hydrazide of isonicotinic acid]
LOX [2]
  Inhibition of LOX in vivo: can partially inhibit LOX

## NNC(N)=O [semicarbazide]
Rat lysyl oxidase
  Inhibition of lysyl oxidase in vivo compared to BAPN: nearly as effective as BAPN
LOX [3]
  IC50: 30 µM
